# Source: patent US20260176285A1, “SALT OF DIOXANE QUINOLINE COMPOUND, CRYSTAL FORM THEREOF, PREPARATION METHODS THEREFOR AND USES THEREOF” (Beijing Scitech-MQ Pharmaceuticals Limited, priority 2022, published 2026)
# Experiments:
# [1] = test system: human lung cancer cells EBC-1; test: Efficacy in nude mouse tumor-bearing model of human lung cancer cells EBC-1; assay type: in vivo, Balb/c nude mouse
# From the text: In this assay, the free compound of formula (I) of the present application and different salts of the compound prepared in Examples 1, 2 and 5 were orally administered to a nude mouse tumor-bearing model of human lung cancer cells EBC-1 to study their effects on tumor growth.
# Preparation of test compounds: an appropriate weight of the test compound (including the free form of the compound of formula (I) and different salts of the compound prepared in Examples 1, 2 and 5) was weighed, completely suspended/dissolved in an appropriate volume of 0.1% sodium carboxymethyl cellulose, stirred and vortexed to give a uniform solution or suspension.
# Methods: All assays were authorized by the Animal Welfare Committee. EBC-1 in the logarithmic growth phase was inoculated into immune-deficient nude mice (BALB/c nude, female, 6-8 weeks old, weighing 18±2 g), subcutaneously on the right back, with a cell inoculation amount of 5×10^6/mouse. After the tumor grew to 150-200 mm^3, the animals were randomly divided into groups, 6 mice per group. The dose of each test substance was set at 15 mg/kg and 7.5 mg/kg (both based on the concentration of the effective formula (I) compound), and administered once a day for about 3 weeks. The test compounds were freshly prepared each day before use. During the assay, the tumor diameter was measured twice a week, and the mice were weighed at the same time. The calculation formula of tumor volume (TV) is: TV=1/2×a×b^2, where a and b represent length and width, respectively. The relative tumor volume (RTV) was calculated based on the measurement results, and the calculation formula is: RTV=Vt/V0, wherein V0 is the tumor volume measured at the time of cage grouping and dosing initiation (i.e., d0), and Vt is the tumor volume at each measurement. The evaluation index of antitumor activity is the relative tumor proliferation rate T/C (%), calculated as follows: T/C (%)=(TRTV/CRTV)×100%, TRTV: RTV of the treatment group; CRTV: RTV of the negative control group. T and C represent the average tumor volume at a certain time point in the drug administration group and the control group, respectively.
# [2] = Solid-state stability evaluation (XRPD, HPLC); assay type: physicochemical; details: for Purity / Purity/initial purity: listed as p-Toluenesulfonate salt crystal form A-II
# Method: The following 6 test samples were placed under 25° C./60% RH and 40° C./75% RH conditions for 1 week, and then the physical and chemical stability of the samples was tested by XRPD and HPLC.
# At the same time, after the p-toluenesulfonate salt crystal form A-II and crystal form B-III solids were placed at 80° C. for 24 hours, the physical and chemical stability of the samples were tested by XRPD and HPLC.
# [3] = Dynamic solubility in water, SGF, FaSSIF and FeSSIF; assay type: physicochemical; set-up: S (dynamic solubility): unit not given here; details: listed as p-Toluenesulfonate salt crystal form A-II; for S (dynamic solubility): 37° C., feed 10 mg/mL
# In short: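 Free form and salt crystal forms tested over time in water, SGF (pH 1.8), FaSSIF (pH 6.5) and FeSSIF (pH 5.0), simulated fluids made with SIF powder. At each time point samples were centrifuged, passed through 0.45 μm PTFE, and filtrate concentration (HPLC) and pH measured.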
# [4] = Hygroscopicity by dynamic moisture sorption (DVS); assay type: physicochemical; details: DVS, listed as p-Toluenesulfonate salt crystal form A-II
# In short: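 Mass change of salt and free-form crystal samples recorded at 25° C over a 0% RH-95% RH-0% RH cycle. Steps were 10% RH (last step 5%) with a dm/dt equilibrium criterion of 0.002%/min.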
compound,measurement,setting,value
"O=C(Nc1ccc(F)cc1)C1(C(=O)Nc2ccc(Oc3ccnc4cc(OCCCN5CCOCC5)c5c(c34)OCCO5)c(F)c2)CC1 [Example 2, N-(3-fluoro-4-((5-(3-morpholinopropoxy)-2,3-dihydro-[1,4]dioxano[2,3-f]quinolin-10-yl)oxy)phenyl)-N-(4-fluorophenyl)cyclopropane-1,1-dicarboxamide]",T/C (relative tumor proliferation rate),"[1]; 7.5 mg/kg oral once a day, day 7",61.3%
same,T/C (relative tumor proliferation rate),"[1]; 7.5 mg/kg oral once a day, day 10",47.4%
same,T/C (relative tumor proliferation rate),"[1]; 7.5 mg/kg oral once a day, day 14",40.3%
same,T/C (relative tumor proliferation rate),"[1]; 7.5 mg/kg oral once a day, day 18",37.7%
same,T/C (relative tumor proliferation rate),"[1]; 7.5 mg/kg oral once a day, day 21",33.1%
same,T/C (relative tumor proliferation rate),"[1]; 15 mg/kg oral once a day, day 3",67.9%
same,T/C (relative tumor proliferation rate),"[1]; 15 mg/kg oral once a day, day 7",37.3%
same,T/C (relative tumor proliferation rate),"[1]; 15 mg/kg oral once a day, day 10",25.4%
same,T/C (relative tumor proliferation rate),"[1]; 15 mg/kg oral once a day, day 14",17.5%
same,T/C (relative tumor proliferation rate),"[1]; 15 mg/kg oral once a day, day 18",16.0%
same,T/C (relative tumor proliferation rate),"[1]; 15 mg/kg oral once a day, day 21",12.09%
same,Purity,"[2]; 25° C./60% RH, 1 week",99.52 area %
same,Purity/initial purity,"[2]; 25° C./60% RH, 1 week",100.1%
same,Purity/initial purity,"[2]; 40° C./75% RH, 1 week",100.0%
same,Change of Crystal form,"[2]; 80° C., 24 hours",no
same,Purity,"[2]; 80° C., 24 hours",99.42 area %
same,S (dynamic solubility),"[3]; FaSSIF, 1 hour",0.073
same,pH of the filtrate,"[3]; FaSSIF, 1 hour",6.1
same,S (dynamic solubility),"[3]; FaSSIF, 2 hours",0.066
same,pH of the filtrate,"[3]; FaSSIF, 2 hours",6.1
same,S (dynamic solubility),"[3]; FaSSIF, 4 hours",0.059
same,pH of the filtrate,"[3]; FaSSIF, 4 hours",6.1
same,S (dynamic solubility),"[3]; FaSSIF, 24 hours",0.072
same,pH of the filtrate,"[3]; FaSSIF, 24 hours",5.1
same,S (dynamic solubility),"[3]; FeSSIF, 1 hour",1.8
same,pH of the filtrate,"[3]; FeSSIF, 1 hour",5.0
same,S (dynamic solubility),"[3]; FeSSIF, 2 hours",2.0
same,pH of the filtrate,"[3]; FeSSIF, 2 hours",5.0
same,S (dynamic solubility),"[3]; FeSSIF, 4 hours",1.5
same,pH of the filtrate,"[3]; FeSSIF, 4 hours",5.0
same,S (dynamic solubility),"[3]; FeSSIF, 24 hours",0.84
same,pH of the filtrate,"[3]; FeSSIF, 24 hours",5.0
same,S (dynamic solubility),"[3]; H2O, 1 hour",2.7
same,pH of the filtrate,"[3]; H2O, 1 hour",4.8
same,S (dynamic solubility),"[3]; H2O, 2 hours",2.7
same,pH of the filtrate,"[3]; H2O, 2 hours",4.9
same,S (dynamic solubility),"[3]; H2O, 4 hours",2.8
same,pH of the filtrate,"[3]; H2O, 4 hours",4.7
same,S (dynamic solubility),"[3]; H2O, 24 hours",2.5
same,pH of the filtrate,"[3]; H2O, 24 hours",4.2
same,S (dynamic solubility),"[3]; SGF, 1 hour",6.8
same,pH of the filtrate,"[3]; SGF, 1 hour",2.3
same,S (dynamic solubility),"[3]; SGF, 2 hours",completely dissolved
same,S (dynamic solubility),"[3]; SGF, 4 hours",completely dissolved
same,S (dynamic solubility),"[3]; SGF, 24 hours",6.3
same,pH of the filtrate,"[3]; SGF, 24 hours",2.3
same,Moisture adsorption (25° C./80% RH),[4]; 25° C./80% RH,0.52%
same,Hygroscopicity,[4]; 25° C.,Slightly
